Converted amounts (≈) assume the structure as drawn.
Key:
Staphylococcus aureus [1] = test: Antibacterial activity against quinolone-resistant Staphylococcus aureus 3519 measured after 24 hrs by two-fold serial dilution method; type: functional; conditions: Staphylococcus aureus, 3519, 24 h
Staphylococcus aureus [2] = test: Antibacterial activity against methicillin-resistant Staphylococcus aureus 3167 measured after 24 hrs by two-fold serial dilution method; type: functional; conditions: Staphylococcus aureus, 3167, 24 h
Mus musculus = test: Antiinflammatory activity in mouse assessed as inhibition of xylene-induced ear edema at 100 mg/kg, ip administered 30 mins before xylene challenge measured after 30 mins relative to DMSO-control; type: functional
Pseudomonas aeruginosa = test: Antibacterial activity against Pseudomonas aeruginosa 2742 measured after 24 hrs by two-fold serial dilution method; type: functional; conditions: Pseudomonas aeruginosa, 2742, 24 h
Escherichia coli [3] = test: Antibacterial activity against Escherichia coli 1356 measured after 24 hrs by two-fold serial dilution method; type: functional; conditions: Escherichia coli, 1356, 24 h
Staphylococcus aureus [4] = test: Antibacterial activity against Staphylococcus aureus 209 measured after 24 hrs by two-fold serial dilution method; type: functional; conditions: Staphylococcus aureus, 209, 24 h
Escherichia coli [5] = test: Antibacterial activity against Escherichia coli 1924 measured after 24 hrs by two-fold serial dilution method; type: functional; conditions: Escherichia coli, 1924, 24 h
Streptococcus mutans = test: Antibacterial activity against Streptococcus mutans 3065 measured after 24 hrs by two-fold serial dilution method; type: functional; conditions: Streptococcus mutans, 3065, 24 h
Staphylococcus aureus [6] = test: Antibacterial activity against methicillin-resistant Staphylococcus aureus 3506 measured after 24 hrs by two-fold serial dilution method; type: functional; conditions: Staphylococcus aureus, 3506, 24 h
Staphylococcus aureus [7] = test: Antibacterial activity against quinolone-resistant Staphylococcus aureus 3505 measured after 24 hrs by two-fold serial dilution method; type: functional; conditions: Staphylococcus aureus, 3505, 24 h
Salmonella typhimurium [8] = test: Antibacterial activity against Salmonella typhimurium 1926 measured after 24 hrs by two-fold serial dilution method; type: functional, Salmonella enterica subsp. enterica serovar Typhimurium; conditions: Salmonella enterica, 1926, 24 h
Staphylococcus aureus [9] = test: Antibacterial activity against Staphylococcus aureus 503 measured after 24 hrs by two-fold serial dilution method; type: functional; conditions: Staphylococcus aureus, 503, 24 h
Staphylococcus aureus [10] = test: Antibacterial activity against Staphylococcus aureus 4220 measured after 24 hrs by two-fold serial dilution method; type: functional; conditions: Staphylococcus aureus, 4220, 24 h
Candida albicans [11] = test: Antifungal activity against Candida albicans 7535 measured after 24 hrs by two-fold serial dilution method; type: functional; conditions: Candida albicans, 7535, 24 h
Salmonella typhimurium [12] = test: Potency index, ratio of moxifloxin MIC to compound MIC against Salmonella typhimurium 1926; type: functional, Salmonella enterica subsp. enterica serovar Typhimurium
Candida albicans [13] = test: Potency index, ratio of fluconazole MIC to compound MIC against Candida albicans 7535; type: functional
Salmonella typhimurium [14] = test: Potency index, ratio of gatifloxacin MIC to compound MIC against Salmonella typhimurium 1926; type: functional, Salmonella enterica subsp. enterica serovar Typhimurium

Structure (SMILES)	MIC (Staphylococcus aureus [1]) [µg/mL]	MIC (Staphylococcus aureus [2]) [µg/mL]	inhibition in vivo at 100 mg/kg (Mus musculus) [%]	MIC (Pseudomonas aeruginosa) [µg/mL]	MIC (Escherichia coli [3]) [µg/mL]	MIC (Staphylococcus aureus [4]) [µg/mL]	MIC (Escherichia coli [5]) [µg/mL]	MIC (Streptococcus mutans) [µg/mL]	MIC (Staphylococcus aureus [6]) [µg/mL]	MIC (Staphylococcus aureus [7]) [µg/mL]	MIC (Salmonella typhimurium [8]) [µg/mL]	MIC (Staphylococcus aureus [9]) [µg/mL]	MIC (Staphylococcus aureus [10]) [µg/mL]	MIC (Candida albicans [11]) [µg/mL]	Ratio (Salmonella typhimurium [12])	Ratio (Candida albicans [13])	Ratio (Salmonella typhimurium [14])
O=C(N/N=C/c1ccc(/C=C/C(=O)c2ccccc2Br)cc1)c1ccncc1	> 64	> 64	48.7	> 64	> 64	64 (≈ 147 µM)	> 64	32 (≈ 73.7 µM)	> 64	> 64	> 64	> 64	64 (≈ 147 µM)	64 (≈ 147 µM)	–	–	–
COc1ccc(C(=O)/C=C/c2ccc(/C=N/NC(=N)N)cc2)cc1	16 (≈ 49.6 µM)	16 (≈ 49.6 µM)	57.2	8 (≈ 24.8 µM)	32 (≈ 99.3 µM)	16 (≈ 49.6 µM)	16 (≈ 49.6 µM)	8 (≈ 24.8 µM)	8 (≈ 24.8 µM)	16 (≈ 49.6 µM)	2 (≈ 6.2 µM)	16 (≈ 49.6 µM)	16 (≈ 49.6 µM)	8 (≈ 24.8 µM)	–	–	–
O=C(/C=C/c1ccc(/C=N/NC(=O)c2ccncc2)cc1)c1ccc(Br)cc1	64 (≈ 147 µM)	> 64	55.7	> 64	> 64	> 64	> 64	> 64	64 (≈ 147 µM)	> 64	> 64	> 64	> 64	> 64	–	–	–
N=C(N)N/N=C/c1ccc(/C=C/C(=O)c2ccc(Cl)cc2)cc1	8 (≈ 24.5 µM)	4 (≈ 12.2 µM)	56.4	2 (≈ 6.12 µM)	8 (≈ 24.5 µM)	4 (≈ 12.2 µM)	2 (≈ 6.12 µM)	4 (≈ 12.2 µM)	2 (≈ 6.12 µM)	4 (≈ 12.2 µM)	4 (≈ 12.2 µM)	4 (≈ 12.2 µM)	2 (≈ 6.12 µM)	4 (≈ 12.2 µM)	–	–	–
Cc1ccc(C(=O)/C=C/c2ccc(/C=N/NC(=O)c3ccncc3)cc2)c(C)c1	> 64	64 (≈ 167 µM)	58.5	> 64	> 64	> 64	> 64	> 64	64 (≈ 167 µM)	> 64	> 64	> 64	> 64	> 64	–	–	–
N=C(N)N/N=C/c1ccc(/C=C/C(=O)c2cccc(Br)c2)cc1	4 (≈ 10.8 µM)	2 (≈ 5.39 µM)	49.7	2 (≈ 5.39 µM)	8 (≈ 21.5 µM)	2 (≈ 5.39 µM)	2 (≈ 5.39 µM)	2 (≈ 5.39 µM)	2 (≈ 5.39 µM)	2 (≈ 5.39 µM)	1 (≈ 2.69 µM)	2 (≈ 5.39 µM)	2 (≈ 5.39 µM)	2 (≈ 5.39 µM)	1	2	1 - 2
N=C(N)N/N=C/c1ccc(/C=C/C(=O)c2ccc(Br)cc2)cc1	16 (≈ 43.1 µM)	8 (≈ 21.5 µM)	68.9	2 (≈ 5.39 µM)	32 (≈ 86.2 µM)	4 (≈ 10.8 µM)	2 (≈ 5.39 µM)	4 (≈ 10.8 µM)	2 (≈ 5.39 µM)	4 (≈ 10.8 µM)	2 (≈ 5.39 µM)	4 (≈ 10.8 µM)	2 (≈ 5.39 µM)	2 (≈ 5.39 µM)	–	–	–
O=C(/C=C/c1ccc(/C=N/NC(=O)c2ccncc2)cc1)c1cccc(Br)c1	64 (≈ 147 µM)	32 (≈ 73.7 µM)	14	> 64	> 64	64 (≈ 147 µM)	> 64	> 64	32 (≈ 73.7 µM)	64 (≈ 147 µM)	> 64	64 (≈ 147 µM)	64 (≈ 147 µM)	> 64	–	–	–
Cc1ccc(C(=O)/C=C/c2ccc(/C=N/NC(=O)c3ccccc3)cc2)c(C)c1	> 64	> 64	0.18	> 64	> 64	> 64	> 64	> 64	> 64	> 64	> 64	> 64	> 64	> 64	–	–	–

— ChEMBL document CHEMBL3868618, “Synthesis and biological evaluation of chalcone derivatives containing aminoguanidine or acylhydrazone moieties” (Bioorg Med Chem Lett, 2016)
